Legend:
[1] = test system: Caco-2 cell; parameters: method as in earlier work; details: QikProp; >500 great; ref [25]; cited from earlier work
[2] = biological target: T1, SmHDAC8 (Schistosoma mansoni, UniProt A5H660); assay: Recombinant SmHDAC8 inhibition assay (Fluor de Lys); type: biochemical; details: Fluor-de-Lys substrate 50 μM, inhibitor 25-0.04 μM, average of three experiments ± SD
T1 construct: made in house; host or cells: E. coli
T1 sequence (A5H660 1-440): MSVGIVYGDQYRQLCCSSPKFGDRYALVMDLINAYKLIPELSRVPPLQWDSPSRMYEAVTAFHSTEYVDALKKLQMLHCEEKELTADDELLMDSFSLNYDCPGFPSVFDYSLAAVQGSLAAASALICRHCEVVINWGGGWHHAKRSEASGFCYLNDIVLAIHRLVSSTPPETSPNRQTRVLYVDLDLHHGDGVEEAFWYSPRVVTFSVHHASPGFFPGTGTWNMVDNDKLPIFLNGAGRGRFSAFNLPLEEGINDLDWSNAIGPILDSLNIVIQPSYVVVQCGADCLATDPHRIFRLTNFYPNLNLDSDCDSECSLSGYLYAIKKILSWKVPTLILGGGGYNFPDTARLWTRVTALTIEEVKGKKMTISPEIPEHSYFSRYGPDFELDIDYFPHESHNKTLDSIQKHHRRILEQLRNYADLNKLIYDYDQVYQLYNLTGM
Description: SmHDAC8 protein was produced and purified by a method previously described by us. Inhibition assays of SmHDAC8 were performed as already described in previous publications. Briefly, the commercial Fluor de Lys kit (BML-KI178) of Enzo Life Science was used for testing the residual activity of the recombinant enzyme upon preincubation with each of the selected compounds. First the enzyme was preincubated with the selected compounds 15 min before substrate addition to the mixture. The Fluor de Lys substrate was used at 50 μM. Then, compounds, substrate, and enzyme were incubated together, and the reaction was allowed to proceed for 1 h at 30°C; subsequently, 2 μM TSA within 50 μL of 1× Developer II was added, and the mixture was further incubated for 1 h at 30°C to quench the reaction. Fluorescence was measured in a plate reader (Varioskan Lux, Thermo Fisher Scientific) with excitation at λ = 370 nm and emission at λ = 450 nm.

[3] = test system: S. mansoni newly transformed schistosoma (NTS); assay: ATP-based luminescence (CellTiter-GLO) viability assay on NTS; type: cell-based
Description: Fig 3 Schistosome viability assays. Panel A: Representative dose-response curves of the inhibitors on NTS. The y-axis indicates the percentage of viability normalized against DMSO (100%) and gambogic acid 10 μM (0%). […] Panel B: dose-response curve of the inhibitors on adult schistosome worm pairs. DMSO (vehicle) was used as negative control (100% viability), the indicated compounds were assayed at 5 (full triangle) 10 (inverted full triangle), 20 (full square) and 50 μM (full circle). Data are expressed as a % severity score (viability) relative to DMSO. Each point represents the average ± standard deviation of three independent experiments.

[4] = test system: MDCK cell; parameters: method as in earlier work; details: QikProp; >500 great; ref [25]; cited from earlier work
[5] = MTT cytotoxicity assay on BJ fibroblasts; type: cell-based; details: human, BJ fibroblast cells, compounds 100-0.78 μM, GA 10-0.078 μM, 2 independent experiments
Description: (§1) The NCTC clone 929 (L-929) murine fibroblast isolated from subcutaneous connective tissue (ATCC-CCL-1) were cultured in Dulbecco’s Modified Eagle Medium (DMEM) supplemented with 10 mM Hepes (pH 6.98–7.30), 1 mM l-glutamine, 100 U/ml of penicillin/streptomycin (BioWhittaker, Lonza, EuroClone SpA), and heat-inactivated 10% FBS. All cells were cultured at 37°C in a 5% CO2 humidified incubator.
(§2) The MTT method was employed as previously described to determine the viability of fibroblast cell lines. Briefly, cells seeded into 96-well plates at a density of 20,000 cells/well after overnight incubation, were exposed to selected compounds at the indicated concentrations for 24–72 h. Next they were gently washed, incubated with MTT (bromuro di 3-(4,5-dimetiltiazol-2-il)-2,5-diphenyltetrazolium) for 4 h, and processed for color detection with DMSO. The resulting purple solution was spectrophotometrically measured at 570 nm using a Varioskan Lux instrument and Skanit software (Thermo Fisher Scientific).
(§3) The optical density values for both assays were expressed as a percentage of cell survival and normalized with the value of cells treated with vehicle (DMSO), and the data were analyzed using GraphPad Prism v9.5.1 software (San Diego, CA, USA).
(§4) The cytotoxicity of the hit compounds was assessed in two independent experiments on murine L929 and human BJ fibroblasts at 24 h by MTT assays. Vehicle (DMSO) and Gambogic acid (GA) were used as negative and positive control respectively. The compounds show a safe profile on both cell lines (S2 Table).
(§5) The IC50(μM) shown was calculated by dose-response curves of the compounds on murine L929 and human BJ fibroblast cells. […] The data are representative of 2 independent experiments. Gambogic acid (GA) and vehicle (DMSO) were used as positive and negative controls respectively. (DOCX)

[6] = MTT cytotoxicity assay on L929 fibroblasts; type: cell-based, murine; details: mouse, L929 (NCTC clone 929) fibroblast cells, compounds 100-0.78 μM, GA 10-0.078 μM, 2 independent experiments
Description: as §1, §2, §3, §4, §5

[7] = test system: histone proteins of S. mansoni adult worm pairs; assay: Western blot, histone acetylation (anti-acetylated lysine) in adult worm pairs; type: cell-based, Schistosoma mansoni; details: 48 h and 72 h, partially lethal and sub-lethal doses
Description: (§6) Ten adult pairs were treated with selected HDAC inhibitors for 48 h or 72 h at partially lethal and sublethal concentrations. Compound concentrations were selected based on the viability curve, Trichostatin A (TSA), a pan-HDAC inhibitor, and NF2503 a SmHDAC8 inhibitor chemically characterized by the presence of a hydroxamate-based MBG (metal binding group) coupled to a tricyclic thieno[3,2-b]indole core as capping group, previously described were used as positive controls in the experiments; DMSO (vehicle) was the negative control. Parasites were processed as previously described and samples were analyzed by 15% SDS-PAGE, and immunoblotting was performed using α-tubulin DM1A (1:5000), α-acetylated-lysine (1:4000) and α-acetylated tubulin (1:3000) antibodies. A Chemidoc XRS Bio-Rad with a chemiluminescent camera and Bio-Rad ImageLab 4.0 software were used for the acquisition and analysis of images. Each Western blot analysis was calibrated by Ponceau staining.
(§7) TSA, a known pan- class I and class II HDAC -inhibitor, and NF2503, a HDAC inhibitor previously shown to impact histone acetylation in adult worm pairs were used as positive controls.
(§8) Fig 6 Effects of selected compounds on histones and tubulin acetylation. […]

[8] = test system: tubulin of S. mansoni adult worm pairs; assay: Western blot, tubulin acetylation in adult worm pairs; type: cell-based, Schistosoma mansoni; details: 48 h and 72 h, partially lethal and sub-lethal doses
Description: as §6, §7, §8

Structure (SMILES) | QPPCaco predicted apparent Caco-2 cell permeability [1] [×10⁻⁶ cm/s] | IC50 [2] [µM] | LD50 on NTS, average +/- SD ([3]; 72 h, 0.7-100 μM, three experiments) [µM] | QPPMDCK predicted apparent MDCK cell permeability [4] [×10⁻⁶ cm/s] | IC50 at 24 h [5] [µM] | IC50 at 24 h [6] [µM] | histone acetylation vs vehicle (DMSO) [7] | tubulin acetylation vs vehicle (DMSO) [8] | Normalization: NTS viability normalized against DMSO (100%) and GA (0%) ([3]; log conc. (µM) 1.4, 72 h, single wells) [%]
Cn1c(=O)c(OCc2ccc(C(=O)NO)cc2)c(C2CCCCC2)c2ccccc21 [NF2836] | 26.454 | 2.3 ± 0.8 | 31.2 ± 11.3 | 11.753 | > 100 | > 100 | only slightly impacts histone acetylation | highest increase in tubulin acetylation | 
CCN(CC)Cc1ccc(Cn2c(=O)c(OCc3ccc(C(=O)NO)cc3)c(-c3cccnc3)c3ccccc32)cc1 [NF2838] | 5.607 | 0.4 ± 0.03 |  | 2.431 | > 100 | 64 to 100 | more strongly impact histone acetylation | increased acetylation | 107.9
